{"source": "patent US8269026B2", "about": "“Lupane derivatives useful for treating HIV” (priority 2008, dated 2012)", "test_system": "HIV-1 (HIVIIIB) replication in MT2 cell line", "assay": "HIV-1 replication in MT2 cell line with and without 30% human serum (viral RT activity in supernatant)", "assay_type": "cell-based", "conditions": "Human immunodeficiency virus 1, MT2 cells, average IC50 if tested more than once", "method_in_brief": "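MT2 cells infected with HIV-1 IIIB at MOI 0.5 for 3 h, washed, seeded at 0.5×10^6/ml in RPMI/10% FBS with serially diluted compound, with or without 30% human serum; medium and compound refreshed on day 3. RT activity in supernatant at day 5; IC50 and IC90 derived.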", "key": {"[1]": {"conditions": "with 30% human serum, read-out: MT2 (HIVIIIB) with HS 30% IC50 range"}, "[2]": {"conditions": "without human serum, read-out: MT2 (HIVIIIB) IC50 range"}}, "note": "Like-named read-outs stand apart in the source and are kept apart here.", "data": [{"smiles": "CC(=O)N1CCC(C(=O)N[C@@]23CC[C@]4(C)[C@H](CC[C@@H]5[C@@]6(C)CC[C@H](OC(=O)CC(C)(C)C(=O)O)C(C)(C)[C@@H]6CC[C@]54C)C2=C(C(C)C)C(=O)C3)CC1", "note": "[19-7, 3β-O-(3′,3′-Dimethylsuccinyl)-17β-(1-acetylpiperidine-4-amido)-21-oxolup-18-ene]", "values": [{"measurement": "IC50", "setting": "[1]", "result": "< 199", "unit": "nM"}, {"measurement": "IC50", "setting": "[2]", "result": "< 199", "unit": "nM"}]}, {"smiles": "CC(C)C1=C2[C@H]3CC[C@@H]4[C@@]5(C)CC[C@H](OC(=O)CC(C)(C)C(=O)O)C(C)(C)[C@@H]5CC[C@@]4(C)[C@]3(C)CC[C@@]2(NC(=O)[C@@H]2CCCN2C)CC1=O", "note": "[19-42]", "values": [{"measurement": "IC50", "setting": "[1]", "result": "< 199", "unit": "nM"}]}, {"smiles": "CC(C)C1=C2[C@H]3CC[C@@H]4[C@@]5(C)CC[C@H](OC(=O)CC(C)(C)C(=O)O)C(C)(C)[C@@H]5CC[C@@]4(C)[C@]3(C)CC[C@@]2(NC(=O)c2ccc(F)cc2)CC1=O", "note": "[19-13, 3β-O-(3′,3′-Dimethylsuccinyl)-17β-(4-fluorobenzamido)-21-oxolup-18-ene]", "values": [{"measurement": "IC50", "setting": "[1]", "result": "< 199", "unit": "nM"}, {"measurement": "IC50", "setting": "[2]", "result": "< 199", "unit": "nM"}]}, {"smiles": "CC(C)C1=C2[C@H]3CC[C@@H]4[C@@]5(C)CC[C@H](OC(=O)CC(C)(C)C(=O)O)C(C)(C)[C@@H]5CC[C@@]4(C)[C@]3(C)CC[C@@]2(NC(=O)Nc2ccccn2)CC1=O", "note": "[17-25, 3β-O-(3′,3′-Dimethylsuccinyl)-17β-(N′-pyridin-2-yl-ureido)-21-oxolup-18-ene]", "values": [{"measurement": "IC50", "setting": "[1]", "result": "< 199", "unit": "nM"}]}, {"smiles": "CC(C)C1=C2C3CCC4[C@@]5(C)CC[C@H](OC(=O)CC(C)(C)C(=O)O)C(C)(C)C5CC[C@@]4(C)[C@]3(C)CC[C@@]2(NC(=O)N2CC[C@H](NC(=O)OC(C)(C)C)C2)CC1=O", "note": "(stereo partly drawn) [17-41, 3β-O-(3′,3′-Dimethylsuccinyl)-17β-[((S)-3-tert-butyloxycarbonylamino-pyrrolidine-1-carbonyl)-amino]-21-oxolup-18-ene]", "values": [{"measurement": "IC50", "setting": "[1]", "result": "< 199", "unit": "nM"}]}, {"smiles": "CC(C)C1=C2C3CCC4[C@@]5(C)CC[C@H](OC(=O)CC(C)(C)C(=O)O)C(C)(C)C5CC[C@@]4(C)[C@]3(C)CC[C@@]2(NC(=O)NC2CCCCC2)CC1=O", "note": "(stereo partly drawn) [17-7, 3β-O-(3′,3′-Dimethylsuccinyl)-17β-[N′-(cyclohexyl)ureido]-21-oxolup-18-ene]", "values": [{"measurement": "IC50", "setting": "[1]", "result": "< 199", "unit": "nM"}]}, {"smiles": "CC(C)C1=C2[C@H]3CC[C@@H]4[C@@]5(C)CC[C@H](OC(=O)CC(C)(C)C(=O)O)C(C)(C)[C@@H]5CC[C@@]4(C)[C@]3(C)CC[C@@]2(NC(=O)N2CCN(C(=O)OC(C)(C)C)CC2)CC1=O", "note": "[17-14, 3β-O-(3′,3′-Dimethylsuccinyl)-17β-[(4-tert-butyloxycarbonyl-piperazine-1-carbonyl)-amino]-21-oxolup-18-ene]", "values": [{"measurement": "IC50", "setting": "[1]", "result": "< 199", "unit": "nM"}, {"measurement": "IC50", "setting": "[2]", "result": "< 199", "unit": "nM"}]}, {"smiles": "CC(C)C1=C2C3CCC4[C@@]5(C)CC[C@H](OC(=O)CC(C)(C)C(=O)O)C(C)(C)C5CC[C@@]4(C)[C@]3(C)CC[C@@]2(NC(=O)C(C)(C)C)CC1=O", "note": "(stereo partly drawn) [19-32, 3β-O-(3′,3′-Dimethylsuccinyl)-17β-tert-butylamido-21-oxolup-18-ene]", "values": [{"measurement": "IC50", "setting": "[1]", "result": "< 199", "unit": "nM"}]}, {"smiles": "CN[C@@]12CC[C@]3(C)[C@H](CC[C@@H]4[C@@]5(C)CC[C@H](OC(=O)CC(C)(C)C(=O)O)C(C)(C)[C@@H]5CC[C@]43C)C1=C(C(C)C)C(=O)C2", "note": "[16-2, 3β-O-(3′,3′-Dimethylsuccinyl)-17β-(methylamino)-21-oxolup-18-ene]", "values": [{"measurement": "IC50", "setting": "[1]", "result": "< 199", "unit": "nM"}]}, {"smiles": "CC(C)C1=C2C3CCC4[C@@]5(C)CC[C@H](OC(=O)CC(C)(C)C(=O)O)C(C)(C)C5CC[C@@]4(C)[C@]3(C)CC[C@@]2(NC(=O)CN2CCC2)CC1=O", "note": "(stereo partly drawn) [19-73, 3β-O-(3′,3′-Dimethylsuccinyl)-17β-(1-azetidin-acetamido)-21-oxolup-18-ene]", "values": [{"measurement": "IC50", "setting": "[1]", "result": "< 199", "unit": "nM"}]}, {"smiles": "CC(C)C1=C2[C@H]3CC[C@@H]4[C@@]5(C)CC[C@H](OC(=O)CC(C)(C)C(=O)O)C(C)(C)[C@@H]5CC[C@@]4(C)[C@]3(C)CC[C@@]2(NC(=O)Nc2ccncc2)CC1=O", "note": "[17-26, 3β-O-(3′,3′-Dimethylsuccinyl)-17β-(N′-pyridin-4-yl-ureido)-21-oxolup-18-ene]", "values": [{"measurement": "IC50", "setting": "[1]", "result": "< 199", "unit": "nM"}]}, {"smiles": "Cc1noc(C(=O)N[C@@]23CC[C@]4(C)C(CCC5[C@@]6(C)CC[C@H](OC(=O)CC(C)(C)C(=O)O)C(C)(C)C6CC[C@]54C)C2=C(C(C)C)C(=O)C3)n1", "note": "(stereo partly drawn) [19-67, 3β-O-(3′,3′-Dimethylsuccinyl)-17β-(3-methyl-[1,2,4]oxadiazole-5-amido)-21-oxolup-18-ene]", "values": [{"measurement": "IC50", "setting": "[1]", "result": "< 199", "unit": "nM"}]}, {"smiles": "CC(C)C1=C2[C@H]3CC[C@@H]4[C@@]5(C)CC[C@H](OC(=O)CC(C)(C)C(=O)O)C(C)(C)[C@@H]5CC[C@@]4(C)[C@]3(C)CC[C@@]2(NC(=O)NCc2nncn2C)CC1=O", "note": "[17-74, 3β-O-(3′,3′-Dimethylsuccinyl)-17β-[N′-(4-methyl-4H-[1,2,4]triazol-3-yl-methyl)-ureido]-21-oxolup-18-ene]", "values": [{"measurement": "IC50", "setting": "[1]", "result": "> 1000", "unit": "nM"}]}, {"smiles": "CC(C)C1=C2[C@H]3CC[C@@H]4[C@@]5(C)CC[C@H](OC(=O)CC(C)(C)C(=O)O)C(C)(C)[C@@H]5CC[C@@]4(C)[C@]3(C)CC[C@@]2(NC(=O)[C@H]2CCCCN2C)CC1=O", "note": "[19-66, 3β-O-(3′,3′-Dimethylsuccinyl)-17β-((R)-1-methylpiperidine-2-amido)-21-oxolup-18-ene]", "values": [{"measurement": "IC50", "setting": "[1]", "result": "< 199", "unit": "nM"}]}, {"smiles": "CC(C)C1=C2C3CCC4[C@@]5(C)CC[C@H](OC(=O)CC(C)(C)C(=O)O)C(C)(C)C5CC[C@@]4(C)[C@]3(C)CC[C@@]2(NC(=O)NC2CCN(C)CC2)CC1=O", "note": "(stereo partly drawn) [17-30, 3β-O-(3′,3′-Dimethylsuccinyl)-17β-[N′-(1-methyl-piperidin-4-yl)-ureido]-21-oxolup-18-ene]", "values": [{"measurement": "IC50", "setting": "[1]", "result": "< 199", "unit": "nM"}]}, {"smiles": "CC(C)C1=C2[C@H]3CC[C@@H]4[C@@]5(C)CC[C@H](OC(=O)CC(C)(C)C(=O)O)C(C)(C)[C@@H]5CC[C@@]4(C)[C@]3(C)CC[C@@]2(NC(=O)CC(C)(C)C(=O)O)CC1=O", "note": "[19-3, 3β-O,17β-N-bis(3′,3′-dimethylsuccinyl)-21-oxolup-18-ene]", "values": [{"measurement": "IC50", "setting": "[2]", "result": "< 199", "unit": "nM"}]}, {"smiles": "CC(C)C1=C2[C@H]3CC[C@@H]4[C@@]5(C)CC[C@H](OC(=O)CC(C)(C)C(=O)O)C(C)(C)[C@@H]5CC[C@@]4(C)[C@]3(C)CC[C@@]2(NC(=O)c2cnn(C)c2)CC1=O", "note": "[19-35, 3β-O-(3′,3′-Dimethylsuccinyl)-17β-(1-methyl-1H-pyrazole-4-amido)-21-oxolup-18-ene]", "values": [{"measurement": "IC50", "setting": "[1]", "result": "< 199", "unit": "nM"}, {"measurement": "IC50", "setting": "[2]", "result": "< 199", "unit": "nM"}]}, {"smiles": "Cc1cccc(C(=O)N[C@@]23CC[C@]4(C)[C@H](CC[C@@H]5[C@@]6(C)CC[C@H](OC(=O)CC(C)(C)C(=O)O)C(C)(C)[C@@H]6CC[C@]54C)C2=C(C(C)C)C(=O)C3)c1", "note": "[19-44, 3β-O-(3′,3′-Dimethylsuccinyl)-17β-(3-methylbenzamido)-21-oxolup-18-ene]", "values": [{"measurement": "IC50", "setting": "[1]", "result": "< 199", "unit": "nM"}]}, {"smiles": "Cc1nnc(NC(=O)N[C@@]23CC[C@]4(C)C(CCC5[C@@]6(C)CC[C@H](OC(=O)CC(C)(C)C(=O)O)C(C)(C)C6CC[C@]54C)C2=C(C(C)C)C(=O)C3)s1", "note": "(stereo partly drawn) [17-45, 3β-O-(3′,3′-Dimethylsuccinyl)-17β-(N′-5-methyl-[1,3,4]thiadiazol-2-yl-ureido)-21-oxolup-18-ene]", "values": [{"measurement": "IC50", "setting": "[1]", "result": "< 199", "unit": "nM"}]}, {"smiles": "CC(C)C1=C2[C@H]3CC[C@@H]4[C@@]5(C)CC[C@H](OC(=O)CC(C)(C)C(=O)O)C(C)(C)[C@@H]5CC[C@@]4(C)[C@]3(C)CC[C@@]2(NC(=O)c2cccnc2)CC1=O", "note": "[19-8, 3β-O-(3′,3′-Dimethylsuccinyl)-17β-(pyridin-3-yl)amido-21-oxolup-18-ene]", "values": [{"measurement": "IC50", "setting": "[1]", "result": "< 199", "unit": "nM"}, {"measurement": "IC50", "setting": "[2]", "result": "< 199", "unit": "nM"}]}]}
